Results taken from patent US20100297020A1, “PHOSPHORYLATED AND PHOSPHONATED PYRONE ANALOGS FOR THERAPEUTIC TREATMENT” (Limerick Biopharma, Inc., priority 2008, published 2010).

Assays:
male ZDF rats = assay: 4 week study in ZDF rats (compound 2, compound 3); format: in vivo
Description: Seven week old male ZDF rats are used for the study.
Experimental Design: This study is a 4 week study Using 32 7-week old male ZDF rats, divided into 4 treatment arms (8 rats/arm).

ZDF rats = assay: Pancreas histopathology, insulin staining and TUNEL in ZDF rats; format: in vivo
Description: Pancreas samples from Example 26 are stored in 10% NBF and used in this study. All tissue samples were processed through graded alcohols, cleared in xylene and infiltrated and embedded into paraffin. For the pancreas four 4 micron sections were cut, one was stained with Hematoxylin and Eosin for histopathology, two were immunohistochemically stained with an antibody to insulin to determine beta cell mass and one was stained for apoptosis with the tunel technique.
The insulin staining procedure was performed as follows: Endogenous peroxidase activity was inhibited by incubation in 3% hydrogen peroxide. Non-specific staining was blocked with DAKO Protein Block Serum-Free (Dako, Carpinteria, Calif.). Insulin positive cells were immunohistochemically stained with a polyclonal guinea pig anti-swine insulin antibody at room temperature for 30 minutes (Dako, Carpinteria, Calif.). After incubation with primary antibody, the tissue sections were sequentially incubated with Envision+ HRP Rabbit (Dako, Carpinteria, Calif.). Staining was developed with Liquid DAB+ (Dako, Carpinteria, Calif.) and counterstained with hematoxylin.
Pancreas samples were stained for apoptosis as follows: 4 micron sections were cut and stained for TUNEL utilizing the following kit In Situ Cell Death Detection Kit, AP (Roche Applied Science, catalog 11 684 809 910).

[1] = following four weeks of daily treatment

O=c1c(O)c(-c2ccc(O)c(OCP(=O)(O)O)c2)oc2cc(O)cc(O)c12 [Compound 2, Quercetin-3′-O-methylphosphonic acid]
plasma insulin levels (male ZDF rats; 4 weeks daily i.p., compared to vehicle treated animals): require lower insulin levels to maintain nomal glucose levels | plasma glucose levels (male ZDF rats; 4 weeks daily i.p., compound 2 100 mg/kg, compound 3 100 mg/kg day 4 and 5, 50 mg/kg day 6-28, rosiglitazone 6 mg/kg): maintains steady glucose levels | glycated hemoglobin levels (% HbA1c) at termination (male ZDF rats; compared to vehicle treated animals): lower glycated hemoglobin levels | triglycerides (male ZDF rats; day 14 and day 21, over vehicle controls): marked decreases in triglycerides | islet cell apoptosis (ZDF rats; TUNEL, following four weeks of daily treatment): decreases in islet cell apoptosis | decrease in islet vacuolar degeneration (inhibition) (ZDF rats; [1]): 43% | decrease in pancreatic inflammation (inhibition) (ZDF rats; [1]): 60% | ratio of insulin positive islet cells to pancreas cells (ZDF rats; insulin immunohistochemistry): significantly increased
